Measurements from the NIST ThermoML archive (doi:10.1021/je3007953).

Experiments:
[1] = molar heat capacity at constant pressure; xn = mol fraction of the nth substance listed; details: Liquid, Small sample (50 mg) DSC
[2] = xn = mol fraction of the nth substance listed; details: Liquid, Vibrating tube method

C[n+]1ccn(CCO)c1.[Cl-] [1-(2-hydroxyethyl)-3-methyl-1H-imidazolium chloride] + O
Details	mass density, x1 = 0.0122 [kg/m3]	mass density, x1 = 0.0453 [kg/m3]	mass density, x1 = 0.0997 [kg/m3]	mass density, x1 = 0.2054 [kg/m3]	mass density, x1 = 0.3071 [kg/m3]	molar heat capacity at constant pressure, x1 = 0.0122 [J/K/mol]	molar heat capacity at constant pressure, x1 = 0.0453 [J/K/mol]	molar heat capacity at constant pressure, x1 = 0.0997 [J/K/mol]	molar heat capacity at constant pressure, x1 = 0.2054 [J/K/mol]	molar heat capacity at constant pressure, x1 = 0.3071 [J/K/mol]
[1], 298.15 K	–	–	–	–	–	75.34	79.99	88.41	107.22	124.59
[1], 303.15 K	–	–	–	–	–	75.7	80.58	89.25	108.22	125.97
[1], 308.15 K	–	–	–	–	–	76.07	81.14	90.1	109.32	127.4
[1], 313.15 K	–	–	–	–	–	76.41	81.68	90.91	110.27	128.97
[1], 318.15 K	–	–	–	–	–	76.86	82.39	91.91	111.66	130.65
[1], 323.15 K	–	–	–	–	–	77.24	83.01	92.79	112.94	132.15
[1], 328.15 K	–	–	–	–	–	77.61	83.57	93.66	114.19	133.71
[1], 333.15 K	–	–	–	–	–	77.97	84.16	94.54	115.52	135.39
[1], 338.15 K	–	–	–	–	–	78.39	84.85	95.51	117	137.33
[1], 343.15 K	–	–	–	–	–	78.9	85.64	96.65	118.67	139.45
[1], 348.15 K	–	–	–	–	–	79.24	86.2	97.49	120.06	141.39
[1], 353.15 K	–	–	–	–	–	79.67	86.89	98.46	121.68	143.57
[2], 298.15 K	1016.85	1059.73	1107.52	1136.95	1187.93	–	–	–	–	–
[2], 303.15 K	1015.23	1057.69	1105.14	1134.43	1185.25	–	–	–	–	–
[2], 308.15 K	1013.43	1055.55	1102.71	1131.88	1182.56	–	–	–	–	–
[2], 313.15 K	1011.46	1053.3	1100.22	1129.28	1179.87	–	–	–	–	–
[2], 318.15 K	1009.27	1050.94	1097.68	1126.66	1177.16	–	–	–	–	–
[2], 323.15 K	1005.9	1048.46	1095.08	1123.99	1174.45	–	–	–	–	–
